{"source": "BindingDB's records for doi:10.7270/Q2VX0F3D", "about": "(Burnham Center For Chemical Genomics, 2012)", "data": [{"biological_target": "T1, Corticotropin-releasing factor-binding protein (Homo sapiens, UniProt P24387)", "T1 sequence (P24387 whole entry)": "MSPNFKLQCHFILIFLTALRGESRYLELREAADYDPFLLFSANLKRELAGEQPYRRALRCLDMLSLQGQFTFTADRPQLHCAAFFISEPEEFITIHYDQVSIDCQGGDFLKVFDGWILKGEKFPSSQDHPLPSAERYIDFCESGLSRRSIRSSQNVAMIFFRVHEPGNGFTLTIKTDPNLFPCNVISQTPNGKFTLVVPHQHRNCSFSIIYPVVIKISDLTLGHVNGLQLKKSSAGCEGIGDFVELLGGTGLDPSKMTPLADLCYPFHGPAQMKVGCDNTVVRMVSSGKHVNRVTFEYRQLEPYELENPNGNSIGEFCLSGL", "experiment": "activators of CRF receptor 2 with binding protein – uHTS hits, confirmation (AID 602473)", "units": {"EC50": "µM"}, "values": [{"compound": "CN(CCOc1ccc(Cc2sc(=O)[nH]c2O)cc1)c1ccccn1", "EC50": "> 53"}, {"compound": "Cc1c(N=C2C(=O)N(c3ccccc3Cl)C(=O)C2Cl)c(=O)n(-c2ccccc2)n1C", "note": "(configuration not stated)", "EC50": "> 53"}, {"compound": "Cc1cc2c(cc1C)NC(c1c(C)n(C)n(-c3ccccc3)c1=O)C1C(=O)CC(C)(C)CC1=N2", "note": "(configuration not stated)", "EC50": "> 53"}, {"compound": "N#CC1C(=N)OC2=C(C(=O)CC(c3ccccc3)C2)C1c1ccc2c(c1)OCO2", "note": "(configuration not stated)", "EC50": "> 53"}, {"compound": "Clc1ccc(C2=Nc3ncnn3C(c3ccco3)C2)cc1", "note": "(configuration not stated)", "EC50": 8.29}, {"compound": "COc1cccc(C(=O)Cc2nc3ccc(C(=O)NCCc4ccc(Cl)cc4)cc3[nH]c2=O)c1", "EC50": 5.02}, {"compound": "Cc1ccc(-n2c(O)c3n(-c4ccccc4)[nH]c(C(=O)c4ccccc4)c-3c2=O)cc1", "EC50": 22.2}, {"compound": "COc1ccccc1-n1c(O)c2n(-c3ccc(C)cc3)[nH]c(C(=O)c3ccccc3)c-2c1=O", "EC50": 5.27}, {"compound": "N#CC(C(=O)COc1ccc(Cl)cc1)c1nc2ccccc2s1", "note": "(configuration not stated)", "EC50": "> 53"}, {"compound": "CCOc1ccc(C2CC(c3ccc(C)cc3)=Nc3nnnn32)cc1", "note": "(configuration not stated)", "EC50": "> 53"}, {"compound": "Cc1ccccc1COc1ccc(C(=O)C2C(=O)C(=O)N(CCCn3ccnc3)C2c2ccco2)cc1", "note": "(configuration not stated)", "EC50": "> 53"}, {"compound": "COc1cc(C2c3c(-c4ccccn4)n[nH]c3OC(=N)C2C#N)cc(OC)c1OC", "note": "(configuration not stated)", "EC50": "> 53"}, {"compound": "O=C(Cc1sc(N=NC=CCc2ccccc2)nc1O)Nc1ccc(Cl)c(Cl)c1", "EC50": "> 53"}, {"compound": "CN1C(=O)C(=CCC=Nc2ccccc2)C(=O)N(C)C1=O", "EC50": "> 53"}, {"compound": "CC1(C)CC(=O)C2CNc3ccccc3N=C2C1", "note": "(configuration not stated)", "EC50": "> 53"}, {"compound": "COC(=O)C1=C(C)NC(=O)C1=CNc1ccc(Oc2ccccc2)cc1", "EC50": "> 53"}, {"compound": "O=C(O)c1ccc(CN=Nc2cccc(C(F)(F)F)c2)cc1", "EC50": "> 53"}, {"compound": "CCOc1ccc(C2=Nc3ncnn3C(c3ccccc3)C2)cc1", "note": "(configuration not stated)", "EC50": "> 53"}, {"compound": "COc1cc2c(cc1OC)C(CC(=O)c1ccc(OC)c([N+](=O)[O-])c1)=NCC2", "EC50": "> 53"}, {"compound": "COc1ccc(-n2c(O)cc(-c3ccc([N+](=O)[O-])cc3)c2O)cc1", "EC50": "> 53"}, {"compound": "Cc1ccc(-n2c(O)cc(=O)[nH]c2=O)c(C)c1", "EC50": "> 53"}, {"compound": "CCCCCCC1=Cc2c/c(=C(/N)NNC(=O)c3ccncc3)c(=O)oc2=CC1=O", "EC50": 1.11}, {"compound": "Cc1ccc2nc(N3C(=O)C(=O)C(C(=O)c4ccco4)C3c3cccc(O)c3)sc2c1", "note": "(configuration not stated)", "EC50": "> 53"}, {"compound": "COc1cc(/C=C2\\CCC(C)C3=C(c4cc(OC)c(OC)c(OC)c4)C(C#N)C(=N)OC32)cc(OC)c1OC", "note": "(configuration not stated)", "EC50": "> 53"}, {"compound": "CC1=CC(C)(C(Cl)(Cl)Cl)C(C)C=C1N=O", "note": "(configuration not stated)", "EC50": "> 53"}, {"compound": "CCNC(=S)N(CCc1ccc(S(N)(=O)=O)cc1)c1cc(O)n(-c2ccccc2)c1O", "note": "[1-(2,5-dioxo-1-phenyl-3-pyrrolidinyl)-3-ethyl-1-[2-(4-sulfamoylphenyl)ethyl]thiourea]", "EC50": 18.5}, {"compound": "Cc1ccc(C2CC(c3ccccc3)=Nc3nc(-n4c(O)ccc4O)nn32)cc1", "note": "(configuration not stated) [1-[7-(4-methylphenyl)-5-phenyl-1,7-dihydro-[1,2,4]triazolo[1,5-a]pyrimidin-2-yl]pyrrolidine-2,5-dione]", "EC50": "> 53"}, {"compound": "CCOc1ccc(C2C(C#N)=C3Sc4ccccc4N3C(=N)C2C#N)cc1", "note": "(configuration not stated) [1-amino-3-(4-ethoxyphenyl)-3H-pyrido[2,1-b][1,3]benzothiazole-2,4-dicarbonitrile]", "EC50": 8.06}, {"compound": "Oc1ccc(CN=Nc2nc(N3CCCCCC3)nc(N3CCCCCC3)n2)c(O)c1", "note": "[2,4-dihydroxybenzaldehyde (4,6-diazepan-1-yl-1,3,5-triazin-2-yl)hydrazone]", "EC50": "> 53"}, {"compound": "COc1cc(C2C(C(=O)c3ccco3)C(=O)C(=O)N2c2cc(C)on2)cc(Br)c1O", "note": "(configuration not stated) [2-(3-bromanyl-5-methoxy-4-oxidanyl-phenyl)-3-(furan-2-ylcarbonyl)-1-(5-methyl-1,2-oxazol-3-yl)-4-oxidanyl-2H-pyrrol-5-one]", "EC50": "> 53"}, {"compound": "C=C1C(c2ccc(Cl)cc2)=[N+](O)C(c2ccccc2)=CN1[O-]", "note": "[2-(4-chlorophenyl)-3-methyl-4-oxido-6-phenylpyrazin-1-ium 1-oxide]", "EC50": "> 53"}, {"compound": "N#Cc1cc2ccccc2nc1SCc1cccnc1", "note": "[2-(Pyridin-3-ylmethylsulfanyl)-quinoline-3-carbonitrile]", "EC50": "> 53"}, {"compound": "CCCCCCc1cc2cc(C(=O)NCc3ccccc3)c(N)oc-2cc1=O", "note": "[2-amino-6-hexyl-7-oxo-N-(phenylmethyl)-1-benzopyran-3-carboxamide]", "EC50": 4.2}, {"compound": "COc1ccc(C2c3ccc(O)cc3OC(=N)C2C#N)cc1C", "note": "(configuration not stated) [2-amino-7-hydroxy-4-(4-methoxy-3-methylphenyl)-4H-1-benzopyran-3-carbonitrile]", "EC50": "> 53"}, {"compound": "CCCCCCc1cc2cc(C(=O)NC)c(N)oc-2cc1=O", "note": "[2-azanyl-6-hexyl-N-methyl-7-oxidanylidene-chromene-3-carboxamide]", "EC50": 3.06}, {"compound": "CCCC1=Nc2nc(C)nn2C(c2cccnc2)C1C(=O)OCC", "note": "(configuration not stated) [2-methyl-5-propyl-7-(3-pyridinyl)-1,7-dihydro-[1,2,4]triazolo[1,5-a]pyrimidine-6-carboxylic acid ethyl ester]", "EC50": "> 53"}, {"compound": "Oc1nc(N=NCc2ccc(F)cc2)sc1-c1ccccc1", "note": "[2-{N'-[1-(4-Fluoro-phenyl)-meth-(E)-ylidene]-hydrazino}-5-phenyl-thiazol-4-one]", "EC50": "> 53"}, {"compound": "CC1C2=C(CC(C)(C)CC2=O)N=C2CC(C)(C)CC(=O)C21", "note": "(configuration not stated) [3,3,6,6,9-pentamethyl-2,4,5,7,9,10-hexahydroacridine-1,8-dione]", "EC50": "> 53"}, {"compound": "COc1ccccc1C1C(C(=O)c2sc(C)nc2C)C(=O)C(=O)N1CCN1CCOCC1", "note": "(configuration not stated) [3-(2,4-dimethyl-1,3-thiazole-5-carbonyl)-4-hydroxy-2-(2-methoxyphenyl)-1-(2-morpholin-4-ylethyl)-2H-pyrrol-5-one]", "EC50": "> 53"}, {"compound": "C=CCOc1ccc(C2C(C(=O)c3ccco3)C(=O)C(=O)N2c2nnc(C)s2)cc1", "note": "(configuration not stated) [3-(furan-2-carbonyl)-4-hydroxy-1-(5-methyl-1,3,4-thiadiazol-2-yl)-2-(4-prop-2-enoxyphenyl)-2H-pyrrol-5-one]", "EC50": "> 53"}, {"compound": "Cc1cccc(N2C(=O)C(=O)C(C(=O)c3cccs3)C2c2ccc(C(C)C)cc2)n1", "note": "(configuration not stated) [3-Hydroxy-5-(4-isopropyl-phenyl)-1-(6-methyl-pyridin-2-yl)-4-(thiophene-2-carbonyl)-1,5-dihydro-pyrrol-2-one]", "EC50": 11.3}, {"compound": "O=C(Cc1nc2ccccc2n(-c2ccccc2)c1=O)c1ccc(F)cc1", "note": "[3-[2-(4-fluorophenyl)-2-oxoethylidene]-1-phenyl-3,4-dihydro-2(1H)-quinoxalinone]", "EC50": 7.18}, {"compound": "O=c1c(CN=Nc2ccccc2)c(Sc2nnnn2-c2ccccc2)nc2ccccn12", "note": "[3-[(phenylhydrazinylidene)methyl]-2-(1-phenyltetrazol-5-yl)sulfanylpyrido[1,2-a]pyrimidin-4-one]", "EC50": 10.1}, {"compound": "O=C(c1ccccc1)c1[nH]n(-c2ccccc2)c2c(O)n(-c3ccccc3)c(=O)c1-2", "note": "[3-benzoyl-1,5-diphenyl-3a,6a-dihydropyrrolo[3,4-c]pyrazole-4,6-dione]", "EC50": 14.6}, {"compound": "CC(=O)C1C(=O)C(=O)N(Cc2ccccc2)C1c1ccc(F)cc1", "note": "(configuration not stated) [3-ethanoyl-2-(4-fluorophenyl)-4-oxidanyl-1-(phenylmethyl)-2H-pyrrol-5-one]", "EC50": "> 53"}, {"compound": "Cc1cc(=O)oc2c1ccc1oc(C(N=O)c3ccccc3)c(C)c12", "note": "(configuration not stated) [4,9-dimethyl-8-(N-oxidanyl-C-phenyl-carbonimidoyl)furo[2,3-h]chromen-2-one]", "EC50": "> 53"}, {"compound": "CSCSC1=NC(C)=C(C(C)=O)C(c2ccccc2Cl)C1C#N", "note": "(configuration not stated) [4-(2-chlorophenyl)-5-ethanoyl-6-methyl-2-(methylsulfanylmethylsulfanyl)-1,4-dihydropyridine-3-carbonitrile]", "EC50": "> 53"}, {"compound": "CCOC(=O)C1C(CCc2ccccc2)=NC(=O)NC1c1cccc([N+](=O)[O-])c1", "note": "(configuration not stated) [4-(3-nitrophenyl)-2-oxo-6-(2-phenylethyl)-3,4-dihydro-1H-pyrimidine-5-carboxylic acid ethyl ester]", "EC50": "> 53"}, {"compound": "COC(=O)c1ccc(C(=O)C(C#N)c2nc3ccccc3s2)cc1", "note": "(configuration not stated) [4-[(2Z)-2-(3H-1,3-benzothiazol-2-ylidene)-2-cyano-1-oxoethyl]benzoic acid methyl ester]", "EC50": "> 53"}, {"compound": "C=CCSc1nnc(C)c(CC=Nc2ccc(Cl)cc2)n1", "note": "[4-chloro-N-[(E)-2-(6-methyl-3-prop-2-enylsulfanyl-1,2,4-triazin-5-yl)ethenyl]aniline]", "EC50": 4.77}, {"compound": "Cc1ccc2nc(N3C(=O)C(=O)C(C(=O)c4ccc(C)o4)C3c3cccc(O)c3)sc2c1", "note": "(configuration not stated) [4-hydroxy-2-(3-hydroxyphenyl)-1-(6-methyl-1,3-benzothiazol-2-yl)-3-(5-methylfuran-2-carbonyl)-2H-pyrrol-5-one]", "EC50": "> 53"}, {"compound": "CC1(C)CC(=O)C(C2C3=C(CC(C)(C)CC3=O)Oc3c(Br)cc(Br)cc32)C(=O)C1", "note": "(configuration not stated) [5,7-bis(bromanyl)-9-(4,4-dimethyl-2-oxidanyl-6-oxidanylidene-cyclohexen-1-yl)-3,3-dimethyl-4,9-dihydro-2H-xanthen-1-one]", "EC50": 10.3}, {"compound": "O=C1CC(c2ccccc2)C(c2ccccc2)C1=O", "note": "(configuration not stated) [5-oxidanyl-3,4-diphenyl-cyclopent-2-en-1-one]", "EC50": "> 53"}, {"compound": "O=c1cc(Nc2cc(O)n(-c3ccccc3Cl)c2O)[nH]c(=O)[nH]1", "note": "[6-[[1-(2-chlorophenyl)-2,5-dioxopyrrolidin-3-yl]amino]-1H-pyrimidine-2,4-dione]", "EC50": "> 53"}, {"compound": "COc1ccc(-c2ccc(C3c4c(n[nH]c4C)OC(=N)C3C#N)o2)cc1", "note": "(configuration not stated) [6-amino-4-[5-(4-methoxyphenyl)-2-furanyl]-3-methyl-2,4-dihydropyrano[2,3-c]pyrazole-5-carbonitrile]", "EC50": 10.1}, {"compound": "COc1ccc(C2=Nc3ncnn3C(c3ccco3)C2)cc1", "note": "(configuration not stated) [7-(2-furanyl)-5-(4-methoxyphenyl)-1,7-dihydro-[1,2,4]triazolo[1,5-a]pyrimidine]", "EC50": 4.53}, {"compound": "Fc1ccc(Br)cc1C1CC(c2ccc(Br)cc2)=Nc2ncnn21", "note": "(configuration not stated) [7-(5-bromo-2-fluorophenyl)-5-(4-bromophenyl)-1,7-dihydro-[1,2,4]triazolo[1,5-a]pyrimidine]", "EC50": "> 53"}]}]}
